# What was measured:
# S. aureus = experiment: Overlay assay, Log10 reduction (Kill) of S. aureus; format: cell-based, Staphylococcus aureus
# Description: (§1) Staphylococcus hominis (S. hominis, ATCC 27844), Cutibacterium acnes (C. acnes, ATCC6919), Staphylococcus aureus (S. aureus, ATCC 6538), and Malassezia restricta (M. restricta, ATCC 7877) were inoculated from freezer stock onto agar plates according to culture conditions as shown in table 1. Then, one loop of microbes from agar plate was inoculated into a liquid culture system according to the culture condition as shown in table 1. M. restricta were reinoculated on MLNA plate twice before use. Cell density of bacteria (S. hominis, C. acnes and S. aureus) was adjusted to concentration at 10^8 cfu/mL for further use based on absorption at 600 nm. Cell density of M. restricta was adjusted to concentration at 10^8 cfu/mL for further use based on absorption at 610 nm.
# (§2) On Day 0, 15 mL of TSA containing (1) 2% Trehalose and 10^6 cfu/ml S. hominis, (2) 10^6 cfu/ml S. hominis alone (without trehalose), and (3) 2% trehalose alone (without S. hominis) was solidified in a […] petri dish and cultured at 37° C. for four days. TSA agar without S. hominis nor trehalose was prepared in parallel as control. […]
# (§3) At the end, Log10 reduction (Kill) were determined for the targeted microorganisms, M. restricta and S. aureus on plate (1), (2), and (3) as compared to the respective M. restricta or S. aureus growth on control plate
# M. restricta = experiment: Overlay assay, Log10 reduction (Kill) of M. restricta; format: cell-based, Malassezia restricta
# Description: as §1, §2, §3
smiles,measurement,setting,value
OC[C@H]1O[C@H](O[C@H]2O[C@H](CO)[C@@H](O)[C@H](O)[C@H]2O)[C@H](O)[C@@H](O)[C@@H]1O [Trehalose],effectiveness against Staphylococcus aureus,"S. aureus; in the presence of S. hominis, conclusion from Table 4",effective
same,effectiveness against Malassezia restricta,"M. restricta; in the presence of S. hominis, conclusion from Table 3",effective
"OC[C@H]1O[C@H](O[C@H]2O[C@H](CO)[C@@H](O)[C@H](O)[C@H]2O)[C@H](O)[C@@H](O)[C@@H]1O [C, trehalose]",Log10 reduction (Kill) of S. aureus,"S. aureus; TSA plate cultured at 37° C. for four days, TSA overlay, serially diluted S. aureus (ATCC 6538) dotted on, compared to growth on control plate",1
"OC[C@H]1O[C@H](O[C@H]2O[C@H](CO)[C@@H](O)[C@H](O)[C@H]2O)[C@H](O)[C@@H](O)[C@@H]1O [A, trehalose]",Log10 reduction (Kill) of M. restricta,"M. restricta; TSA plate cultured at 37° C. for four days, MLNA overlay, serially diluted M. restricta (ATCC 7877) dotted on, compared to growth on control plate",0

# Reference: US20230270653A1, “USE OF TREHALOSE FOR INHIBITING AILMENT INDUCING MICROORGANISMS” (Conopco, Inc., d/b/a UNILEVER, priority 2020, published 2023)
